Laboratory results published in publication PMC8414367, “(E)-7-Ethylidene-lithocholic Acid (7-ELCA) Is a Potent Dual Farnesoid X Receptor (FXR) Antagonist and GPBAR1 Agonist Inhibiting FXR-Induced Gene Expression in Hepatocytes and Stimulating Glucagon-like Peptide-1 Secretion From Enteroendocrine Cells” (Frontiers in Pharmacology, 2021).
Several values for one entry are separate records, joined by “and”; a condition that tells them apart may be missing. Identical values can stand only once. Like-named read-outs stand apart in the source and are kept apart here.

Experiments:
human FXR = target: T1, human FXR (Homo sapiens, UniProt Q96RI1); experiment: FXR luciferase reporter gene assay (FXRE-luc) in HepG2 cells, antagonistic mode; assay type: cell-based; conditions: for IC50: HepG2, co-treatment with 1 µM OCA, 24 h, read-out: IC50, inhibition of OCA-induced FXR activation
T1 sequence (Q96RI1 1-486): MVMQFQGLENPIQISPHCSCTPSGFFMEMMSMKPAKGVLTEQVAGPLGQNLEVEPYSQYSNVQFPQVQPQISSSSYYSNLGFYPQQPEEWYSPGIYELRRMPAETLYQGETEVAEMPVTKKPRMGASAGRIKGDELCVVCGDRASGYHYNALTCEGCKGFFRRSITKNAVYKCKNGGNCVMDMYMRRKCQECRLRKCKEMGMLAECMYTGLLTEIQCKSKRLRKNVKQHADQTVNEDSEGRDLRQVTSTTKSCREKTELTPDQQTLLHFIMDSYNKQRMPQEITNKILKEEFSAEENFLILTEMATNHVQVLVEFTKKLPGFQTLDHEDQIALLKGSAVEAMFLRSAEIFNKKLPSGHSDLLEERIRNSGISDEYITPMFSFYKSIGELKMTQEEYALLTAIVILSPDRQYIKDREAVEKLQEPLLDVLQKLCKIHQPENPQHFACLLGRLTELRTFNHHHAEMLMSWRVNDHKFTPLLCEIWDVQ
T1 sequence (P19793 1-462 partner): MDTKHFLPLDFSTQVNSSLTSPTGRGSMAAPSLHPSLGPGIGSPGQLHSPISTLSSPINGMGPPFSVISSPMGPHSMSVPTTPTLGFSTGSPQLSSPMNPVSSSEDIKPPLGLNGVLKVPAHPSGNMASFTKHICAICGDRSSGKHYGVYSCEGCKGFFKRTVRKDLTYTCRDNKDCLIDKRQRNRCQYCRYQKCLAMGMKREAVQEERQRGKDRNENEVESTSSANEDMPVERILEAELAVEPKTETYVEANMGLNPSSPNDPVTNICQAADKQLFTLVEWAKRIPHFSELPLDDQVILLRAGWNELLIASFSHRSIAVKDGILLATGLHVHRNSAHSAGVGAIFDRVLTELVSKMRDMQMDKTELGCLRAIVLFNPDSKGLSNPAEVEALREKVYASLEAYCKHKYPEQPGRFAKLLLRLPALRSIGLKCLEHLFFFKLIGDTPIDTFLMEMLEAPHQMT

FXR LBD = target: T2, FXR LBD (Homo sapiens, UniProt Q96RI1); experiment: LanthaScreen TR-FRET FXR Coactivator Assay, antagonistic mode (SRC-2 peptide recruitment); assay type: biochemical
T2 construct: purchased ThermoFisher Scientific PV4833
T2 sequence (Q96RI1 262-486 limits assumed): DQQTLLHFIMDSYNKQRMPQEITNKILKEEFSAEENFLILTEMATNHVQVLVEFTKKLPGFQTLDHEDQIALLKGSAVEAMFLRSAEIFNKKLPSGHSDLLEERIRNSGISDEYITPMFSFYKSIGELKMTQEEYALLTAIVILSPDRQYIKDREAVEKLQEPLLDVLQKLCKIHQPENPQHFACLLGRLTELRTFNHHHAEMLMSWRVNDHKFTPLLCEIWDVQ
Protocol: The LanthaScreen® TR-FRET FXR Coactivator Assay (goat, PV4833, ThermoFisher Scientific) was performed to assess the affinity of tested compounds to FXR ligand-binding domain (LBD) in agonistic and antagonistic models. In the antagonistic assays, the FXR LBD was co-incubated with OCA or GW4064, together with tested ligands in increasing concentrations. The assay was performed according to the manufacturer’s protocols. […] Data have been obtained from three independent experiments performed in 4 replicates.

NCI-H716 cells = experiment: cAMP determination (cAMP-Glo) in differentiated NCI-H716 cells; assay type: cell-based, human; conditions: 10 µM, 30 min, compared to 10 µM LCA
Protocol: Differentiated NCI-H716 cells were serum-starved, washed in PBS, and the cell culture medium was changed to Hanks' Balanced Salt solution (HBSS) supplemented with 0.2% (w/v) BSA and 500 µM 3-isobutyl-1-methylxanthine and incubated for 45 min at 37°C. Cells were stimulated with tested compounds or forskolin for 30 min, and the amount of cAMP generated was measured using the cAMP-Glo™ Assay (V1501, Promega, […], United States). The changes in cAMP levels (ΔcAMP) are presented as cAMP levels in treated samples after subtraction of the cAMP levels in the nontreated (NT) samples.
FIGURE 8 Effects of 7-alkylated derivatives of CDCA and 7-ELCA on the membrane receptor GPBAR1. […] . (B) CRE-luc activation depends on the presence of GPBAR1. (C) Effects of LCA and 7-ELCA (both at 10 µM) on intracellular generation of cAMP in differentiated NCI-H716 cells after 30 min treatment. The increase in cAMP level (ΔcAMP) is presented as the difference between cAMP concertation in the treated sample after subtraction of the cAMP in the nontreated control sample. (D) Concentration-response curves for activation of GPBAR1 by LCA and 7-ELCA. EC50 values were calculated using nonlinear fitting of concentration-response curves. […] (G) 7-ELCA (10 µM) increases GLP-1 secretion in siRNA control but not in siRNA Gpbar1 transfected GLUTag cells after 1 h treatment. […]

GPBAR1 Ser270Gly = target: T3, GPBAR1 Ser270Gly (Homo sapiens, UniProt Q8TDU6, S270G); experiment: CRE-luc reporter assay with mutated GPBAR1 variant in HepG2 cells; assay type: cell-based
T3 construct: expressed in transfected cells; host or cells: HepG2
T3 sequence (Q8TDU6 whole entry S270G): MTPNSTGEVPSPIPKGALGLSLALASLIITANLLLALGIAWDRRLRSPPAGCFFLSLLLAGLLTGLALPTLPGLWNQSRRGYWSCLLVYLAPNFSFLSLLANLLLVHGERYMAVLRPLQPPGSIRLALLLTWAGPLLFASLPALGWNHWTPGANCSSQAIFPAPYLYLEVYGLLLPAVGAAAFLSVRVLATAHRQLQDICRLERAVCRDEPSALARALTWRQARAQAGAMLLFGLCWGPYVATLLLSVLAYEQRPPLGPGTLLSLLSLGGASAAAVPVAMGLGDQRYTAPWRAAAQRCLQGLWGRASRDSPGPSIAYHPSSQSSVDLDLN

[1] = target: pregnane X receptor (PXR) (Homo sapiens, UniProt O75469); experiment: Nuclear receptor specificity luciferase reporter assay in HepG2 cells
Sequence of pregnane X receptor (PXR) (O75469 whole entry): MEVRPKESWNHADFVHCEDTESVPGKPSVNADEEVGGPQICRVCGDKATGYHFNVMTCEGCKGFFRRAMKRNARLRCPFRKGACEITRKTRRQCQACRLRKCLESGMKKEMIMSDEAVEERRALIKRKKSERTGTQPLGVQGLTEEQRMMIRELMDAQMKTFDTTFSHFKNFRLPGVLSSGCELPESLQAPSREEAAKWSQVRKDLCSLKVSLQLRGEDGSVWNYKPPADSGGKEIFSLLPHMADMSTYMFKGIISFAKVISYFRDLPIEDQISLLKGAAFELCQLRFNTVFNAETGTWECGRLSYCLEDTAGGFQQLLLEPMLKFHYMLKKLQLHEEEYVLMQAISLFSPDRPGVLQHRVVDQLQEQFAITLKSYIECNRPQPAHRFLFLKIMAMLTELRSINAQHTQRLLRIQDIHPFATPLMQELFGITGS
Protocol: (§1) For transient transfection, HepG2 cells were seeded at the density of 40,000 cells/cm^2. […] The next day, cells were challenged with tested ligands in indicated concentrations for 5 h. […] All the other transient transfection reporter gene assays were performed with Lipofectamine® 3000 (ThermoFisher Scientific). Briefly, cells were transfected with 150 ng/well luciferase reporter gene constructs (p(DR3)3-luc, SHP-luc, p3A4-luc, pTAT-(GRE)2-TK-luc, p2B6-luc, pGL4.35[luc2P⁄9XGAL4UAS⁄Hygro]), FXRE-luc together with 100 ng/well of the corresponding full-length fragment nuclear receptor expression vectors (pSG5-hVDR, pSG5-hFXR, pSG5-hRXRα, pSG5-hPXR, CAR3 variant) or the ligand binding domains of human, pCMX-GAL4-hFXR, pCMX-GA4L-LXRα, pCMX-GA4L-LXRα, pCMX-GA4L-TRα, pCMX-GA4L-PPARα, pCMX-GAL4-PPARγ, pCMX-GAL4-PPARδ) and 30 ng/well of pRL-TK Renilla luciferase vector 24 h prior to the treatment. […] The firefly luciferase activity was measured using the Dual Luciferase® Reporter Assay System (Promega) and normalized to Renilla luciferase activity. Experiments in an agonistic mode were performed with OCA, CDCA or tested compounds (all compounds at 10 μM). […] EC50 and IC50 were calculated using GraphPad PRISM ver. […]
(§2) Data were normalized to Renilla luciferase activity and are expressed as fold activation relative to control (nontreated, NT) cells. […]

LXRα = LXRα (Homo sapiens, UniProt Q13133); experiment: as above
Sequence of LXRα (Q13133 209-447 limits assumed): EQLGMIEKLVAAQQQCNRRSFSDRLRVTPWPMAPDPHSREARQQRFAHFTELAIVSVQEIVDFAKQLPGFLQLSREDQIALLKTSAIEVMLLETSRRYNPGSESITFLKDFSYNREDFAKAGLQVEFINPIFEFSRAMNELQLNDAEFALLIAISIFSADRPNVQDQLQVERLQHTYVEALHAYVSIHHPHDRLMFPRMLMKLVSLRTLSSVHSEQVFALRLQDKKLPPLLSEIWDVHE
Protocol: as §1, §2

[2] = GW4064 1 µM, read-out: IC50, inhibition of GW4064-promoted interaction of SRC-2 and FXR
[3] = OCA 1 µM, read-out: IC50, inhibition of OCA-induced recruitment of SRC-2 to FXR LBD
[4] = HepG2, read-out: relative response (%) to the model FXR ligand activation (set to be 100%), GW4064 1 µM

| Structure (SMILES) | IC50 (human FXR) | inhibition at 100 µM (human FXR; HepG2, at 100 µM, with 1 µM OCA, read-out: inhibition of FXR activation) [%] | remaining activity at 10 µM (human FXR; HepG2, tested compound 10 µM, GW4064 1 µM, read-out: relative response (%) to the model FXR ligand activation (set to be 100%), GW4064 1 µM) [%] | remaining activity at 40 µM (human FXR; HepG2, tested compound 40 µM, CDCA 20 µM, * = significant effect on cellular viability, read-out: relative response (%) to the model FXR ligand activation (set to be 100%), CDCA 20 µM) [%] | remaining activity at 40 µM (human FXR; HepG2, tested compound 40 µM, GW4064 1 µM, * = significant effect on cellular viability, read-out: relative response (%) to the model FXR ligand activation (set to be 100%), GW4064 1 µM) [%] | IC50 (FXR LBD; [2]) [µM] | IC50 (FXR LBD; [3]) [µM] | melting point [°C] | inhibition at 100 µM (human FXR; HepG2, read-out: inhibition of FXR activation) [%] | remaining activity at 40 µM (human FXR; HepG2, read-out: relative response (%) to the model FXR ligand activation (set to be 100%), CDCA 20 µM) [%] | remaining activity at 10 µM (human FXR; [4]) [%] | remaining activity at 40 µM (human FXR; [4]) [%] | capacity to antagonize OCA-stimulated FXR activation (in words) (human FXR; with 1 µM OCA, Figure 3B) | intracellular generation of cAMP (NCI-H716 cells) | CRE-luc activation via GPBAR1 Ser270Gly (GPBAR1 Ser270Gly) | antagonism of PXR activation by model ligand ([1]; 10 µM, with rifampicin 1 µM) | activation of PXR ([1]; agonistic assay, 24 h) | antagonism of LXRα activation by model ligand (LXRα; 10 µM, with GW3965 1 µM) | activation of LXRα (LXRα; agonistic assay, 24 h) |
| --- | --- | --- | --- | --- | --- | --- | --- | --- | --- | --- | --- | --- | --- | --- | --- | --- | --- | --- | --- |
| CCC[C@@]1(O)C[C@@H]2C[C@H](O)CC[C@]2(C)C2CC[C@@]3(C)C(CC[C@@H]3[C@H](C)CCC(=O)O)C21 (stereo partly drawn) [2f, 3α,7α-Dihydroxy-7β-propyl-5β-cholan-24-oic acid] | 20.5 ± 1 µM | ~85 | 85.7 ± 11.2 | 96.4 ± 0.7 | 61.7 ± 10.8 | 13.8 ± 2.5 | 26.5 ± 2 | 100 to 105 |  |  |  |  |  |  |  |  |  |  |  |
| C/C=C1\C[C@@H]2C[C@H](O)CC[C@]2(C)[C@H]2CC[C@]3(C)[C@@H]([C@H](C)CCC(=O)O)CC[C@H]3[C@H]12 [2a, (E)-3α-Hydroxy-7-ethylidene-5β-cholan-24-oic acid] | 15 µM and 15.1 µM |  |  |  |  | 6.6 ± 2.9 | 18 ± 2.7 | 67 to 72 | ~95 | 67.3 ± 0.6 | 82.9 ± 2.3 | 51.1 ± 2.9 | most potent FXR antagonist | more significant production of cAMP | partially preserved | did not antagonize | did not activate | did not antagonize | did not activate |
